Paper PMC7104723 (Cell Research, 2020)
Residues, ends and D or L forms follow the SMILES beside them. *: point of attachment. X1 = CC(C)CCC[C@@H](C)[C@H]1CC[C@H]2[C@@H]3CC=C4C[C@@H](OC(=O)C*)CC[C@]4(C)[C@H]3CC[C@]12C

Tested on: SARS-CoV-2 PsV
Conditions: PsV, 72 h

CC[C@H](C)[C@H](NC(=O)[C@H](C)NC(=O)[C@H](CCC(=O)O)NC(=O)[C@H](CCC(=O)O)NC(=O)[C@H](CC(C)C)NC(=O)[C@H](CCCCN)NC(=O)[C@H](CCCCN)NC(=O)[C@H](CCSC)NC(=O)[C@H](CCC(=O)O)NC(=O)[C@H](Cc1ccc(O)cc1)NC(=O)[C@H](CCC(=O)O)NC(=O)[C@H](CC(C)C)NC(=O)[C@H](CC(=O)O)NC(=O)[C@H](CC(C)C)NC(=O)[C@H](Cc1ccccc1)NC(=O)[C@@H](NC(=O)[C@@H](NC(=O)[C@H](CC(N)=O)NC(=O)[C@@H](NC(=O)[C@H](CCC(N)=O)NC(=O)[C@H](CC(=O)O)NC(=O)[C@H](CC(C)C)NC(=O)[C@@H](N)CO)[C@@H](C)CC)C(C)C)[C@@H](C)O)C(=O)N[C@@H](CCCCN)C(=O)N[C@@H](CCCCN)C(=O)N[C@@H](CC(C)C)C(=O)N[C@@H](CCC(=O)O)C(=O)N[C@@H](CCC(=O)O)C(=O)N[C@@H](CO)C(=O)N[C@@H](Cc1ccc(O)cc1)C(=O)N[C@H](C(=O)N[C@@H](CC(=O)O)C(=O)N[C@@H](CC(C)C)C(=O)N[C@@H](CCCCN)C(=O)N[C@@H](CCC(=O)O)C(=O)N[C@@H](CC(C)C)C(=O)N[C@@H](CSCC(=O)O[C@H]1CC[C@@]2(C)C(=CC[C@H]3[C@@H]4CC[C@H]([C@H](C)CCCC(C)C)[C@@]4(C)CC[C@@H]32)C1)C(N)=O)[C@@H](C)CC [EK1C1] (H-SLDQINVTFLDLEYEMKKLEEAIKKLEESYIDLKELC(X1)-NH2)
IC50: 480 nM

CC[C@H](C)[C@H](NC(=O)[C@H](C)NC(=O)[C@H](CCC(=O)O)NC(=O)[C@H](CCC(=O)O)NC(=O)[C@H](CC(C)C)NC(=O)[C@H](CCCCN)NC(=O)[C@H](CCCCN)NC(=O)[C@H](CCSC)NC(=O)[C@H](CCC(=O)O)NC(=O)[C@H](Cc1ccc(O)cc1)NC(=O)[C@H](CCC(=O)O)NC(=O)[C@H](CC(C)C)NC(=O)[C@H](CC(=O)O)NC(=O)[C@H](CC(C)C)NC(=O)[C@H](Cc1ccccc1)NC(=O)[C@@H](NC(=O)[C@@H](NC(=O)[C@H](CC(N)=O)NC(=O)[C@@H](NC(=O)[C@H](CCC(N)=O)NC(=O)[C@H](CC(=O)O)NC(=O)[C@H](CC(C)C)NC(=O)[C@@H](N)CO)[C@@H](C)CC)C(C)C)[C@@H](C)O)C(=O)N[C@@H](CCCCN)C(=O)N[C@@H](CCCCN)C(=O)N[C@@H](CC(C)C)C(=O)N[C@@H](CCC(=O)O)C(=O)N[C@@H](CCC(=O)O)C(=O)N[C@@H](CO)C(=O)N[C@@H](Cc1ccc(O)cc1)C(=O)N[C@H](C(=O)N[C@@H](CC(=O)O)C(=O)N[C@@H](CC(C)C)C(=O)N[C@@H](CCCCN)C(=O)N[C@@H](CCC(=O)O)C(=O)N[C@@H](CC(C)C)C(=O)NCC(=O)N[C@@H](CO)C(=O)NCC(=O)N[C@@H](CSCC(=O)O[C@H]1CC[C@@]2(C)C(=CC[C@H]3[C@@H]4CC[C@H]([C@H](C)CCCC(C)C)[C@@]4(C)CC[C@@H]32)C1)C(N)=O)[C@@H](C)CC [EK1C2]
IC50: 419 nM
